Experimental data published in patent US6794416B2, “Methods, compositions and modes of delivery for the treatment of emphysema using 13-cis-retinoic acid” (Syntex (U.S.A.) LLC, priority 2000, dated 2004).
Read-outs that look alike come from different tables or passages of the source. Marks after values point to notes of the source that are not given here.

Legend:
[1] = tested on: rat model of elastase-induced emphysema; test: alveolar repair in the rat model of elastase-induced emphysema; type: in vivo, male Sprague Dawley rats; details: for % Alveolar Repair: starting 21 days post elastase injury, relative to elastase + vehicle
Experimental: All-trans retinoic acid (ATRA) and 13-cis-retinoic acid were evaluated for their effects on alveolar repair in the rat model of elastase-induced emphysema (Massaro et al., Nature, 1997, Vol. 3, No. 6:675; Massaro et al., U.S. Pat. No. 5,998,486). Animals were divided into treatment groups of approximately eight. Lung inflammation and alveolar damage was induced in male Sprague Dawley rats by a single instillation of about 2 U/gram body mass of pancreatic elastase (porcine derived, Calbiochem).
(§1) Animals treated with ATRA and 13-cis-retinoic acid prepared in Capmul at the dosage ranges enumerated in Table 6 were dosed orally once per day starting 21 days post injury. Control groups were challenged with elastase and 21 days later were treated with vehicle (Capmul solution) for 14 days. Animals were sacrificed 24 hours after the last dose by exsanguination under deep anesthesia. Blood was collected at time of exsanguination for analysis.
The lungs were inflated with 10% neutral buffered formalin by intratracheal instillation at a constant rate (1 ml/gram body mass/min). The lung was excised and immersed in fixative for 24 hours prior to processing. Alveolar measurements were made in four regions of the lung/rat. The mean value/treatment group was determined by summing the average area/rat for all eight rats relative to the elastase+ vehicle treated group. […] Standard methods were used to prepare 5 μm paraffin sections. Sections were stained with Hematoxylin and Eosin. Computerized Morphometric analysis was performed to determine the average alveolar size and alveolar number.

[2] = parameters: species or system male Sprague Dawley rats; details: rat, in vivo, po
Experimental: as §1
Quantitation of triglycerides contained in rat plasma was performed using established procedures in a contact clinical laboratory facility. Briefly, plasma triglycerides were converted to dihdroxyacetone and hydrogen peroxide by sequential treatment of plasma with lipase and glycerokinase according directions described by the manufacturer of triglycerides/GPO kit (Boehringer Mannheim #1488872). Hydrogen peroxide was quantitated colorimetrically in a Hitachi 911 Chemistry Analyzer. In rats normal triglyceride levels are between about 75 mg/dl and about 175 mg/dl.
Triglyceride values are a convenient measure of toxicity. […] Furthermore, at every dosage level tested, the triglyceride levels observed with 13-cis-retinoic acid were lower than that observed for ATRA.

[3] = oral dose 0.1 mg/kg once per day
[4] = oral dose 1.0 mg/kg once per day
[5] = oral dose 10.0 mg/kg once per day

Triglyceride ([2]; 0.001 mg/kg) [mg/dL]	Triglyceride ([2]; 0.01 mg/kg) [mg/dL]	Triglyceride ([2]; 0.1 mg/kg) [mg/dL]	Triglyceride ([2]; 1 mg/kg) [mg/dL]	Triglyceride ([2]; 10 mg/kg) [mg/dL]	Triglyceride ([2]; 0.3 mg/kg) [mg/dL]	Triglyceride ([2]; 3 mg/kg) [mg/dL]	SMILES	statistical significance of alveolar repair relative to elastase treated control ([1]; dosage of 0.001 mg/kg)	statistical significance of alveolar repair relative to elastase treated control ([1]; dosage range from 10.0 mg/kg to as low as 0.01 mg/kg)	% Alveolar Repair ([1]; oral dose 0.001 mg/kg once per day)	% Alveolar Repair ([1]; oral dose 0.01 mg/kg once per day) [%]	% Alveolar Repair [1, 3]	% Alveolar Repair [1, 4] [%]	% Alveolar Repair [1, 5] [%]	statistical significance of alveolar repair relative to elastase treated control ([1]; dosages below 0.3 mg/kg)	% Alveolar Repair ([1]; oral dose 0.3 mg/kg once per day)	% Alveolar Repair ([1]; oral dose 3.0 mg/kg once per day) [%]
125	73	82	128	147			CC1=C(/C=C/C(C)=C/C=C/C(C)=C\C(=O)O)C(C)(C)CCC1 [13-cis-retinoic acid, (13Z)-retinoic acid]	statistically insignificant	statistically significant	12* %	38	30%	45	56			
		152	175	378	149	307	CC1=C(/C=C/C(C)=C/C=C/C(C)=C/C(=O)O)C(C)(C)CCC1 [ATRA, All-trans retinoic acid]					8.8* %	45	53	not statistically significant	30* %	47
